In US6362369B1, “Phthalic acid diamide derivatives fluorine-containing aniline compounds as starting material, agricultural and horticultural insecticides, and a method for application of the insecticides” (Nihon Nohyaku Co., Ltd., priority 1997, dated 2002):

Columns and labels:
Assay type in all cases: in vivo
[1] = system: common cutworm (Spodoptera Litura); experiment: Insecticidal effect on common cutworm (Test Example 2); conditions: 500 ppm, eight days after inoculation, 25° C.; for Insecticidal effect on common cutworm (Test Example 2), judged grade: cabbage leaf dip, second-instar larvae; for Insecticidal effect, Test Example 2: common cutworm second-instar larvae, cabbage leaf immersed
Procedure, shortened: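 Second-instar larvae placed in 9 cm Petri dishes with air-dried treated material, held at 25 °C. Dead and live insects counted 8 days after inoculation; mortality calculated and scored against a set criterion. Triplicate groups of 10 insects.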

[2] = system: diamondback moth (Plutella xylostella); experiment: Insecticidal effect on diamondback moth (Test Example 1); conditions: for Insecticidal effect on diamondback moth (Test Example 1), judged grade: mortality judged according to the criterion shown in Test Example 1; for Insecticidal effect, Test Example 1: diamondback moth, mortality judged by criterion of Test Example 1
Procedure, shortened: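 Triplicate groups of 10 insects were scored: six days after immersion of oviposited Chinese cabbage seedlings and holding at 25 °C post air-drying, hatched larvae were counted. Mortality derived from these counts and insecticidal effect judged by a set criterion.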

[3] = system: rice leafroller (Cnaphalocrocis medinalis); experiment: Insecticidal effect on rice leafroller (Test Example 3); conditions: 500 ppm, four days after inoculation, 25° C., humidity 70%; for Insecticidal effect on rice leafroller (Test Example 3), judged grade: rice lamina dip, third-instar larvae; for Insecticidal effect, Test Example 3: rice leafroller third-instar larvae, rice lamina immersed
Procedure, shortened: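 Insecticidal effect is judged by a predefined criterion from dead/alive counts four days after infesting air-dried lamina with third-instar larvae, kept on moistened filter paper at 25° C, 70% humidity.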

| Compound | Insecticidal effect on common cutworm (Test Example 2), judged grade [1] | Insecticidal effect on diamondback moth (Test Example 1), judged grade [2] | Insecticidal effect on rice leafroller (Test Example 3), judged grade [3] | Insecticidal effect, Test Example 2 [1] | Insecticidal effect, Test Example 1 [2] | Insecticidal effect, Test Example 3 [3] |
| --- | --- | --- | --- | --- | --- | --- |
| CC(C)(C)NC(=O)c1c(Cl)cccc1C(=O)Nc1ccc(C(F)(F)F)cc1 [compound 934] | A (100) | A (100) | A (100) | – | – | – |
| CC(C)(C)NC(=O)c1cccc(Cl)c1C(=O)Nc1ccc(C(F)(F)F)cc1 [compound 935] | A (100) | A (100) | A (100) | – | – | – |
| CC(C)(C)NC(=O)c1c(Cl)cccc1C(=O)Nc1ccc(OC(F)(F)F)cc1 [compound 936] | A (100) | A (100) | A (100) | – | – | – |
| Cc1cc(Cl)ccc1NC(=O)c1cccc(Cl)c1C(=O)NC(C)(C)C [compound 937] | A (100) | A (100) | A (100) | – | – | – |
| CC(C)(C)NC(=O)c1c(I)cccc1C(=O)Nc1ccc(C(F)(F)F)cc1 [compound 939] | – | – | – | A (100) | A (100) | A (100) |
| CC(C)(C)NC(=O)c1c(I)cccc1C(=O)Nc1ccc(OC(F)(F)F)cc1 [compound 940] | – | – | – | A (100) | A (100) | A (100) |
| Cc1cc(Cl)ccc1NC(=O)c1cccc(I)c1C(=O)NC(C)(C)C [compound 941] | – | – | – | A (100) | A (100) | A (100) |
| Cc1cc(C(F)(F)C(F)(F)F)ccc1NC(=O)c1cccc(I)c1C(=O)NC(C)(C)C [compound 942] | – | – | – | A (100) | A (100) | A (100) |
| Cc1cc(C(F)(F)C(F)(F)F)ccc1NC(=O)c1c(I)cccc1C(=O)NC(C)(C)C [compound 943] | – | – | – | C (89-80) | A (100) | A (100) |
| Cc1cc(OC(F)(F)F)ccc1NC(=O)c1cccc(Cl)c1C(=O)NC(C)(C)C [compound 944] | – | – | – | A (100) | A (100) | A (100) |
| CCCCNC(=O)c1c(I)cccc1C(=O)Nc1ccc(C(F)(F)C(F)(F)F)cc1C [compound 945] | – | – | – | A (100) | A (100) | A (100) |
| CCCCCNC(=O)c1c(I)cccc1C(=O)Nc1ccc(C(F)(F)C(F)(F)F)cc1C [compound 947] | – | – | – | A (100) | A (100) | A (100) |
| CCCCCCNC(=O)c1c(I)cccc1C(=O)Nc1ccc(C(F)(F)C(F)(F)F)cc1C [compound 949] | – | – | – | A (100) | A (100) | A (100) |
| CCc1cc(I)ccc1NC(=O)c1cccc(I)c1C(=O)NC(C)C [compound 951] | – | – | – | A (100) | A (100) | A (100) |
| Cc1cc(C(F)(F)C(F)(F)F)ccc1NC(=O)c1cccc(C)c1C(=O)NC(C)C [compound 953] | – | – | – | A (100) | A (100) | A (100) |
| Cc1cc(C(F)(F)C(F)(F)F)ccc1NC(=O)c1cccc(C)c1C(=O)NC(C)(C)C [compound 955] | – | – | – | A (100) | A (100) | A (100) |
| Cc1cc(OC(F)(F)F)ccc1NC(=O)c1cccc(I)c1C(=O)NC(C)(C)C [compound 957] | – | – | – | A (100) | A (100) | A (100) |
| Cc1cc(C#Cc2ccc(Cl)cc2Cl)ccc1NC(=O)c1cccc(Cl)c1C(=O)NC(C)C [compound 971] | – | – | – | A (100) | A (100) | A (100) |
| CC(C)NC(=O)c1c(Cl)cccc1C(=O)Nc1ccc2c(c1)OC(F)(F)C2(F)F [compound 973] | – | – | – | A (100) | A (100) | A (100) |
| CC(C)NC(=O)c1c(I)cccc1C(=O)Nc1ccc2c(c1)OC(F)(F)C2(F)F [compound 974] | – | – | – | A (100) | A (100) | A (100) |

| Compound | Insecticidal effect on common cutworm (Test Example 2), judged grade [1] | Insecticidal effect on diamondback moth (Test Example 1), judged grade [2] | Insecticidal effect on rice leafroller (Test Example 3), judged grade [3] | Insecticidal effect, Test Example 2 [1] | Insecticidal effect, Test Example 1 [2] | Insecticidal effect, Test Example 3 [3] |
| --- | --- | --- | --- | --- | --- | --- |
| CC(C)NC(=O)c1c(C(=O)Nc2ccc3c(c2)OC(F)(F)C(F)(F)O3)cccc1[N+](=O)[O-] [compound 976] | – | – | – | A (100) | A (100) | A (100) |
| CC(C)NC(=O)c1c(Cl)cccc1C(=O)Nc1ccc2c(c1)OC(F)(F)C(F)(F)O2 [compound 977] | – | – | – | A (100) | A (100) | A (100) |
| CC(C)NC(=O)c1ccccc1C(=O)Nc1ccc(C(O)(C(F)(F)F)C(F)(F)F)cc1 [compound 978] | – | – | – | C (89-80) | A (100) | A (100) |
| CC(C)NC(=O)c1c(C(=O)Nc2ccc(C(O)(C(F)(F)F)C(F)(F)F)cc2)cccc1[N+](=O)[O-] [compound 979] | – | – | – | A (100) | A (100) | A (100) |
| CC(C)NC(=O)c1c(Cl)cccc1C(=O)Nc1ccc(C(O)(C(F)(F)F)C(F)(F)F)cc1 [compound 980] | – | – | – | A (100) | A (100) | A (100) |
| COCCNC(=O)c1c(I)cccc1C(=O)Nc1ccc(C(F)(F)C(F)(F)F)cc1C [compound 981] | – | – | – | A (100) | A (100) | A (100) |
| CCOCCNC(=O)c1c(I)cccc1C(=O)Nc1ccc(C(F)(F)C(F)(F)F)cc1C [compound 983] | – | – | – | A (100) | A (100) | A (100) |
| COCCCNC(=O)c1c(I)cccc1C(=O)Nc1ccc(C(F)(F)C(F)(F)F)cc1C [compound 985] | – | – | – | A (100) | A (100) | A (100) |
| C=CCNC(=O)c1c(I)cccc1C(=O)Nc1ccc(C(F)(F)C(F)(F)F)cc1C [compound 987] | – | – | – | A (100) | A (100) | A (100) |
| C#CCNC(=O)c1c(I)cccc1C(=O)Nc1ccc(C(F)(F)C(F)(F)F)cc1C [compound 989] | – | – | – | A (100) | A (100) | A (100) |
| Cc1cc(C(F)(F)C(F)(F)F)ccc1NC(=O)c1cccc(I)c1C(=O)NC1CCCC1 [compound 991] | – | – | – | A (100) | A (100) | A (100) |
| CC(C)NC(=O)c1c(C(=O)Nc2ccc(SC(F)(F)F)cc2)cccc1[N+](=O)[O-] [compound 996] | – | – | – | A (100) | A (100) | A (100) |
| CC(C)NC(=O)c1c(Cl)cccc1C(=O)Nc1ccc(SC(F)(F)F)cc1 [compound 997] | – | – | – | A (100) | A (100) | A (100) |
| CC(C)NC(=O)c1c(I)cccc1C(=O)Nc1ccc(SC(F)(F)F)cc1 [compound 998] | – | – | – | A (100) | A (100) | A (100) |
| CC(C)NC(=O)c1c(C(=O)Nc2ccc([S+]([O-])C(F)(F)F)cc2)cccc1[N+](=O)[O-] (stereo not drawn) [compound 1000] | – | – | – | D (79-50) | A (100) | A (100) |
| CC(C)NC(=O)c1c(Cl)cccc1C(=O)Nc1ccc([S+]([O-])C(F)(F)F)cc1 (stereo not drawn) [compound 1001] | – | – | – | A (100) | A (100) | A (100) |
| CC(C)NC(=O)c1c(I)cccc1C(=O)Nc1ccc([S+]([O-])C(F)(F)F)cc1 (stereo not drawn) [compound 1002] | – | – | – | A (100) | A (100) | A (100) |
| CC(C)NC(=O)c1c(I)cccc1C(=O)Nc1ccc2c(c1)OC(F)(F)C(F)(F)O2 [compound 1003] | – | – | – | A (100) | A (100) | A (100) |
| CC(C)NC(=O)c1c(I)cccc1C(=O)Nc1ccc(C(O)(C(F)(F)F)C(F)(F)F)cc1 [compound 1004] | – | – | – | A (100) | A (100) | A (100) |
